How the values were obtained:
[1] = target: T1, proteasome Trypsin-like (T-L) activity (Mus musculus, UniProt P70195+Q9R1P1); assay: Pharmacodynamic proteasome activity in murine red blood cells, T-L; assay type: in vivo, NOD/SCID mice; conditions: iv, mice, 2 mg/kg i.v., time 0, read-out: Trypsin-like (T-L) mean residual activity relative to vehicle treated controls
T1 construct: RBCs were lysed with assay lysis buffer and incubated on ice for 30 minutes; from tissue; host or cells: red blood cells of NOD/SCID mice
Experimental: Cells were harvested by centrifugation at 1,200 rpm at room temperature. Cell pellets were washed with PBS (phosphate buffered saline) and lysed with assay lysis buffer (50 mM HEPES (N-2-hydroxyethylpiperazine-N′-2-ethanesulfonic acid), pH 7.5; 150 mM NaCl; 1% Triton X-100; 2 mM ATP). Cell lysates were incubated on ice for 30 minutes, mixed by vortex every 5 minutes, and then centrifuged at 12,000 g for 10 minutes. The supernatant was transferred to a 96-well plate. For each assay, 10 μg of total protein were incubated for 1 hour at 37° C. with increasing concentrations (1 nM to 10 μM) of test compound diluted in assay buffer (50 mM tris-HCl (tris(hydroxymethyl)aminomethane-HCl), pH 7.5; 150 mM NaCl). DMSO alone was used as a control in every assay plate. After incubation, a specific fluorogenic proteasome substrate was added to each assay reaction at a final concentration of 40 μM in a total volume of 100 μL. N-Succinyl-Leu-Leu-Val-Tyr-7-amino-4-methylcoumarin (Suc-Leu-Leu-Val-Tyr-AMC) was used for measuring chymotrypsin-like (CT-L) activity, t-butoxycarbonyl-Leu-Arg-Arg-7-amino-4-methylcoumarin (Boc-Leu-Arg-Arg-AMC) for trypsin-like (T-L) activity, and benzyloxycarbonyl-L-leucyl-L-leucyl-L-glutamyl-7-amino-4-methylcoumarin (Z-Leu-Leu-Glu-AMC) for caspase-like (C-L) activity. The excitation wavelength was set at 360 nm and the fluorescence emission wavelength of AMC was detected at 460 nm. The fluorescence of free AMC released during the enzymatic reaction was measured with a SpectraMax M5 fluorescent spectrophotometric plate reader (Molecular Devices, Sunnyvale, Calif.). AMC release rate was measured at 37° C. in a kinetic mode, recording every 5 minutes for 30 minutes. Experiments were performed in triplicate and repeated at least twice.
All mouse experiments were performed in accordance with approval from the Ontario Cancer Institute institutional animal review board. Five- to six-week-old male non-obese diabetic/severe combined immunodeficient (NOD/SCID) mice were grouped randomly (n=3 mice per group). Mice were administered vehicle (5% DMSO, 20% Cremophor) or compounds of Formula I at different doses either intravenously or by oral gavage, and venous blood samples (20-50 μL) were collected from each mouse over 24 hours. Blood samples were mixed with heparin (APP Pharmaceuticals; Schaumburg, Ill.) in 0.5 mL tubes in accordance with the manufacturer's instructions. After centrifugal separation at 3,000 g for 10 minutes, red blood cells (RBCs) in the bottom layer were transferred into a new tube and stored at −70° C. until use. RBCs were lysed with assay lysis buffer and incubated on ice for 30 minutes, mixing by vortex every 5 minutes, and then centrifuged at 12,000 g for 10 minutes. The supernatant was transferred to a 96-well plate and proteasome activity was measured as described above for tumor cell lysates.
Proteasome subunit activity (Chymotrypsin-like, Trypsin-like, Caspase-like, CT-L, T-L, C-L, respectively) were monitored over the course of 24 hrs following […] administration of representative compounds of Formula I. NOD/SCID mice were treated with compounds of Formula I (2 mg/kg by iv administration) or vehicle control and carfilzomib for up to 24 hours, as described above. Table 9 summarizes the data on pharmacodynamic activity of representative compounds of Formula I following a dose of 2 mg/kg intravenous (i.v) administration to mice. Data are presented as mean residual activity (SEM) relative to vehicle treated controls.

M14 = assay: NCI screening panel, M14 (Melanoma); assay type: cell-based, human
Experimental: Representative compounds of Formula I were screened using the National Cancer Institute (NCI) screening panel, which consists of a panel of human tumor cell lines, representing leukemia, melanoma, and cancers of the lung, colon, ovary, breast, prostate and renal system.
After 24 h, two plates of each cell line are fixed in situ with TCA, to represent a measurement of the cell population for each cell line at the time of drug addition (Tz). Experimental drugs are solubilised in dimethyl sulfoxide at 400-fold the desired final maximum test concentration and stored frozen prior to use. At the time of drug addition, an aliquot of frozen concentrate is thawed and diluted to twice the desired final maximum test concentration with complete medium containing 50 μg/mL gentamicin. Additional four, 10-fold or ½ log serial dilutions are made to provide a total of five drug concentrations plus control. Aliquots of 100 μl of these different drug dilutions are added to the appropriate microtiter wells already containing 100 μl of medium, resulting in the required final drug concentrations.
Following drug addition, the plates are incubated for an additional 48 h at 37° C., 5% CO2, 95% air, and 100% relative humidity. For adherent cells, the assay is terminated by the addition of cold TCA (trichloroacetic acid). Cells are fixed in situ by the gentle addition of 50 μl of cold 50% (w/v) TCA (final concentration, 10% TCA) and incubated for 60 minutes at 4° C. The supernatant is discarded, and the plates are washed five times with tap water and air dried. Sulforhodamine B (SRB) solution (100 μl) at 0.4% (w/v) in 1% acetic acid is added to each well, and plates are incubated for 10 minutes at room temperature. After staining, unbound dye is removed by washing five times with 1% acetic acid and the plates are air dried. Bound stain is subsequently solubilised with 10 mM trizma base, and the absorbance is read on an automated plate reader at a wavelength of 515 nm. For suspension cells, the methodology is the same except that the assay is terminated by fixing settled cells at the bottom of the wells by gently adding 50 μl of 80% TCA (final concentration, 16% TCA). Using the seven absorbance measurements [time zero, (Tz), control growth, (C), and test growth in the presence of drug at the five concentration levels (Ti)], the percentage growth is calculated at each of the drug concentrations levels. Percentage growth inhibition is calculated as: [(Ti−Tz)/(C−Tz)]×100 for concentrations for which Ti>/=Tz and [(Ti−Tz)/Tz]×100 for concentrations for which Ti<Tz.
Three dose response parameters are calculated for each experimental agent. Growth inhibition of 50% (GI50) is calculated from [(Ti−Tz)/(C−Tz)]×100=50, which is the drug concentration resulting in a 50% reduction in the net protein increase (as measured by SRB staining) in control cells during the drug incubation. The drug concentration resulting in total growth inhibition (TGI) is calculated from Ti=Tz. The LC50 (concentration of drug resulting in a 50% reduction in the measured protein at the end of the drug treatment as compared to that at the beginning) indicating a net loss of cells following treatment is calculated from [(Ti−Tz)/Tz]×100=−50. Values are calculated for each of these three parameters if the level of activity is reached. However, if the effect is not reached or is exceeded, the value for that parameter is expressed as greater or less than the maximum or minimum concentration tested.

Row | Structure (SMILES) | remaining activity at 2 mg/kg [1] [%] | Log10GI50 (M14) | Log10LC50 (M14) | Log10TGI50 (M14)
1 | CC(C)C[C@H](NC(=O)[C@H](COC(F)F)NC(=O)CN1CCOCC1)C(=O)N[C@@H](COC(F)F)C(=O)N[C@@H](CC(C)C)C(=O)[C@@]1(C)CO1 [Example 1, (2S)—N-[(1S)-1-(difluoromethoxymethyl)-2-[[(1S)-3-methyl-1-[(2R)-2-methyloxirane-2-carbonyl]butyl]amino]-2-oxo-ethyl]-2-[[(2S)-3-(difluoromethoxy)-2-[(2-morpholinoacetyl)amino]propanoyl]amino]-4-methyl-pentanamide] | 100 | −7.25 | >−4.00 | −6.31
2 | CC(C)C[C@H](NC(=O)[C@H](COC(F)F)NC(=O)CN1CCOCC1)C(=O)N[C@@H](Cc1ccccc1)C(=O)N[C@@H](CC(C)C)C(=O)[C@@]1(C)CO1 [Example 2, (2S)-N-[(1S)-1-benzyl-2-[[(1S)-3-methyl-1-[(2R)-2-methyloxirane-2-carbonyl]butyl]-amino]-2-oxo-ethyl]-2-[[(2S)-3-(difluoromethoxy)-2-[(2-morpholinoacetyl)amino]propanoyl]amino]-4-methyl-pentanamide] | 100 | −7.39 | >−4.00 | −6.26
3 | CC(C)C[C@H](NC(=O)[C@H](COC(F)F)NC(=O)CN1CCOCC1)C(=O)N[C@@H](Cc1ccccc1)C(=O)N[C@@H](Cc1ccccc1)C(=O)[C@@]1(C)CO1 [Example 3, (2S)-N-[(1S)-1-benzyl-2-[[(1S)-1-benzyl-2-[(2R)-2-methyloxiran-2-yl]-2-oxo-ethyl]amino]-2-oxo-ethyl]-2-[[(2S)-3-(difluoromethoxy)-2-[(2-morpholinoacetyl)-amino]propanoyl]amino]-4-methyl-pentan-amide] | 100 | −7.69 | >−4.00 | −6.54
4 | CC(C)C[C@H](NC(=O)[C@H](COC(F)F)NC(=O)CN1CCOCC1)C(=O)N[C@@H](COC(F)F)C(=O)N[C@@H](Cc1ccccc1)C(=O)[C@@]1(C)CO1 [Example 4, (2S)-N-[(1S)-2-[[(1S)-1-benzyl-2-[(2R)-2-methyloxiran-2-yl]-2-oxo-ethyl]amino]-1-(difluoromethoxymethyl)-2-oxo-ethyl]-2-[[(2S)-3-(difluoromethoxy)-2-[(2-mor-pholinoacetyl)amino]propanoyl]amino]-4 methyl-pentanamide] | 100 | −6.97 | >−4.00 | −5.66
5 | CC(C)C[C@H](NC(=O)[C@H](COC(F)F)NC(=O)[C@H](COC(F)F)NC(=O)[C@H](CCc1ccccc1)NC(=O)CN1CCOCC1)C(=O)[C@@]1(C)CO1 [Example 7, (2S)-N-[(1S)-1-(difluoromethoxymethyl)-2-[[(1S)-1-(difluoromethoxymethyl)-2-[[(1S)-3-methyl-1-[(2R)-2-methyloxirane-2-carbo-nyl]butyl]amino]-2-oxo-ethyl]amino]-2-oxo-ethyl]-2-[(2-morpholinoacetyl)amino]-4-phenyl-butanamide] | 100 | −7.11 | >−4.00 | −5.70
6 | CC(C)C[C@H](NC(=O)[C@H](Cc1ccccc1)NC(=O)[C@H](COC(F)F)NC(=O)[C@H](COC(F)F)NC(=O)CN1CCOCC1)C(=O)[C@@]1(C)CO1 [Example 11, (2S)-2-[[(2S)-3-(difluoromethoxy)-2-[[(2S)-3-(difluoromethoxy)-2-[(2-morpholinoacetyl)-amino]propanoyl]amino]propanoyl]amino]-N-[(1S)-3-methyl-1-[(2R)-2-methyloxirane-2-carbonyl]butyl]-3-phenyl-propanamide] | 100 | −7.21 | >−4.00 | −5.91
7 | CC(C)C[C@H](NC(=O)[C@H](COC(F)F)NC(=O)[C@H](COC(F)F)NC(=O)[C@H](COC(F)F)NC(=O)CN1CCOCC1)C(=O)[C@@]1(C)CO1 [Example 17, (2S)-3-(difluoromethoxy)-N-[(1S)-1-(difluoromethoxymethyl)-2-[[(1S)-1-(difluoro-methoxymethyl)-2-[[(1S)-3-methyl-1-[(2R)-2-methyloxirane-2-carbonyl]butyl]amino]-2-oxo-ethyl]amino]-2-oxo-ethyl]-2-[(2-mor-pholinoacetyl)amino]-propanamide] | 100 | −6.59 | >−4.00 | −5.41

Reference: US20150218212A1, “FLUORINATED EPOXYKETONE-BASED TETRAPEPTIDE COMPOUNDS AND USES THEREOF AS PROTEASOME INHIBITORS” (FLUORINOV PHARMA INC., priority 2012, published 2015)
